Source: patent US9089576B2, “Medicament comprising a peptide extract of avocado, which is intended for the treatment and prevention of illnesses that are linked to an immune system deficiency or oxidative stress or skin ageing or dry skin” (LABORATOIRES EXPANSCIENCE, priority 2004, dated 2015)
Where “and” joins values, the source holds several entries; their conditions need not be identical. Equal entries are not always repeated. Where two headings read alike, the source gives them in different places. Marks after values point to notes of the source that are not given here.

Key:
MMP1 = assay: Gene expression of MMP1 in PMA-stimulated fibroblasts (real-time RT-PCR); assay type: cell-based, human; conditions: 1 mg/ml TGF b1 pre-treatment 16 hours, then 10 nM PMA 2 hours
Protocol: After 16 hours of incubation, the fibroblasts were stimulated for 2 hours with 10 nM PMA (Phorbol Myristate Acetate) [Sigma] in RPMI medium without FCS.
For the study of the expression of MMP1, the inhibition percentage was calculated as follows: […]

Elastin = assay: Gene expression of Elastin in fibroblasts (real-time RT-PCR); assay type: cell-based, human; conditions: 24 hours
Protocol: (§1) The cells were then incubated at 37° C., 5% CO2 for 24 hours for the collagen I and elastin study or 48 hours for the LOX and LOXL study.

Collagen I = assay: Gene expression of Collagen I in fibroblasts (real-time RT-PCR); assay type: cell-based, human; conditions: 24 hours
Protocol: as §1

[1] = system: Glycosaminoglycan (GAG) synthesis; assay: GAG synthesis by keratinocytes (35S-sulphate incorporation); assay type: cell-based, human; conditions: 72 hours
Protocol: (§2) Normal human epidermal keratinocytes (NHEK) were pre-cultured for 24 hours at 37° C., 5% CO2 in calcium-depleted (0.09 mM) SFM medium [Invitrogen] supplemented with 0.25 ng/ml EGF [Invitrogen], 25 μg/ml pituitary extract [Invitrogen] and 25 μg/ml gentamycin [Sigma].
(§3) Two identical runs were prepared to assay, on one hand, hyaluronic acid release/production and, on the other, […] incorporation in the GAG fraction. The group corresponding to the GAG assay was supplemented with ^35S-sulphate [Amersham] after 48 hours of culture (labelling for the last 24 hours).
At the end of the treatment, in the group corresponding to the GAG assay, the incorporated radioactivity was counted and thus the variation in GAG synthesis with respect to the analysed control.
(§4) The between-group comparisons were conducted by means of an analysis of variance using the Dunnett multiple comparison test.

oxidised proteins = assay: Oxidised proteins content in replication-aged fibroblast model (INCell Analyzer analysis); assay type: cell-based, human; conditions: P16 fibroblasts; 150 μM BHA; 72 hours
Protocol: The study was conducted on normal human dermal fibroblasts at passage 8 (P8, control conditions) and brought to senescence using two separate methods: • accelerated ageing by means of successive replications: fibroblasts at passage 16 (P16), • accelerated ageing by means of H2O2.
The fibroblasts were cultured in DMEM medium [Invitrogen] supplemented with 2 mM L-glutamine [Invitrogen] and 10% Fetal Calf Serum [FCS, Invitrogen].
After incubation, the cells were rinsed and fixed with methanol. The fluorescein-5-thiosemicarbazide probe (20 μM) [Invitrogen] was added for 30 minutes at ambient temperature and, in parallel, the cell nuclei were stained with Hoechst [Sigma]. The image acquisition was performed using the INCell Analyzer™ 1000 unit [GE Healthcare], with the ×20 lens.

[2] = system: Jurkat cell line (human lymphoid cells); assay: Anti-radical activity: intracellular lipid peroxides after H2O2 (C11-fluorine probe, flow cytometry); assay type: cell-based; conditions: 100 μM BHA; 10 μM H2O2, 30 minutes
Protocol: The relative lipid peroxide content inside the cells was measured in the basal state and following hydrogen peroxide treatment (H2O2, radical species production stimulation).
This measurement was made using a specific fluorescent probe selected and quantified by means of flow cytometry. This technique offers the advantage of very high specificity by measuring the fluorescence of individual cells, on a large number of cells (10,000 cells analysed per sample).
The cells were prepared in phenol red-free DMEM medium [Merck] with 1.87 mg/ml sodium bicarbonate [Invitrogen] according to the following conditions: • cells treated with H2O2 with the C11-fluorine probe (to quantify lipid peroxides); • cells not treated with H2O2 with C11-fluorine probe.
The probe was incorporated in the cells and the cells were then washed and incubated in the presence or not (standard) of 0.05%, 0.1%, 0.2% and 1% DM avocado peptides or 100 μM BHA (Butylated hydroxyanisole) [Sigma] […]
In the presence of hydrogen peroxide, the C11-fluorine probe integrated in the membranes is oxidised and its fluorescence decreases. Therefore, a decrease in the fluorescence signal conveys an increase in the membrane lipid peroxide content (and conversely).
The between-group comparisons were conducted using the Student's test and the protection percentage (P) was calculated as follows:

hBD-2 = assay: Induction of hBD-2 in normal human keratinocytes (ELISA); assay type: cell-based; conditions: IL-1β 100 ng/ml, 24 hours
Protocol: Normal human keratinocytes are seeded in 96 well plates (about 20,000 cells/well), in the presence of a specific medium which is enriched in calcium (final concentration 1.3 mM), as formerly described in the publication “Human β-Defensin-2 production in Keratinocytes is regulated by Interleukin-1, Bacteria, and the State of Differentiation”, Alice Y. Liu et al., The Society for Investigative Dermatology, vol. 118, No 2, February 2002, pages 275-281.
After 24 hours incubation, the induction of hBD-2 is assessed with an ELISA technique using a specific antibody (goat polyclonal to human BD2; Abcam; ab9871).

[3] = system: Rat peritoneal mast cells; assay: Tryptase release by mast cells stimulated with calcium ionophore A23187; assay type: cell-based; conditions: Ca ionophore + 50 μM Quercetin
Protocol: (reference tryptase release inhibitory molecule).
The cells were then stimulated for 15 minutes by 0.5 μM calcium ionophore A23187 [Millipore] to induce the release of tryptase.
The reaction was stopped by means of centrifugation at 4° C. The tryptase was assayed in the pellets and in the supernatants by means of a commercial kit [Millipore] based on the spectrophotometric detection of the chromophore p-nitroaniline (pNA) after cleavage of the substrate tosyl-gly-pro-lys-pNA by tryptase.

S100 A7 = assay: DNA array gene expression, Skinethic reconstructed epidermises: S100 A7; assay type: cell-based; conditions: 1 μM retinoic acid
Desmosglein 1 = assay: DNA array gene expression, Skinethic reconstructed epidermises: Desmosglein 1; assay type: cell-based; conditions: 1 μM retinoic acid
NICE-1 protein = assay: DNA array gene expression, Skinethic reconstructed epidermises: NICE-1; assay type: cell-based; conditions: 1 μM retinoic acid
Heme oxygenase 1 = assay: DNA array gene expression, Skinethic reconstructed epidermises: Heme oxygenase 1; assay type: cell-based; conditions: 1 μM retinoic acid
[4] = system: Normal human dermal fibroblasts (NHDF); assay: NHDF proliferation (neutral red incorporation); assay type: cell-based; conditions: 1 μM retinoic acid; 48 hours; RPMI 1% FCS
Protocol: (§5) The cell proliferation was evaluated using a neutral red incorporation tests. This test is based on the ability of living cells to incorporate and fix neutral red, a supravital staining agent. Therefore, the staining activity intensity (optical density measurement of cell lysates) reflects the quantity of living cells.
(§6) Normal human epidermal keratinocytes (NHEK), supplied by Cambrex, were cultured in KGM2 culture medium [Cambrex]. Normal human dermal fibroblasts (NHDF), supplied by Cambrex, were cultured in RPMI 1640 medium with GlutaMAX I [Invitrogen] supplemented with 1% or 10% fetal calf serum [FCS, Invitrogen].
(§7) The cells were inoculated in 96-well plates in KGM2 medium for the NHEK and in RPMI medium with 1% FCS for the NHDF.
(§8) (positive reference) in KGM2 medium for the NHEK or in RPMI medium with 1% FCS for the NHDF.
An additional condition was conducted for the NHDF: treatment with complete medium (RPMI with 10% FCS: optimal conditions for NHDF proliferation).
(§9) At the end of treatment, the quantity of cells per well was evaluated by means of a neutral red incorporation test:
(§10) After 3 hours in contact with neutral red, the cells were rinsed and lysed and the optical density proportional to the quantity of living cells was read at 540 nm against the blank (well with no cells).

Elafin = assay: DNA array gene expression, Skinethic reconstructed epidermises: Elafin; assay type: cell-based; conditions: 1 μM retinoic acid
S100 A8 = assay: DNA array gene expression, Skinethic reconstructed epidermises: S100 A8; assay type: cell-based; conditions: 1 μM retinoic acid
[5] = system: Normal human epidermal keratinocytes (NHEK); assay: NHEK proliferation (neutral red incorporation); assay type: cell-based; conditions: 1 μM retinoic acid; 48 hours
Protocol: as §5, §6, §7, §8, §9, §10

[6] = system: SPRL6A (epidermal differentiation complex protein like protein); assay: DNA array gene expression, Skinethic reconstructed epidermises: SPRL6A; assay type: cell-based; conditions: 1 μM retinoic acid
S100 A9 = assay: DNA array gene expression, Skinethic reconstructed epidermises: S100 A9; assay type: cell-based; conditions: 1 μM retinoic acid
Thioredoxin = conditions: 1 μM retinoic acid
Protocol: The gene expression analysis conducted using standard simplified DNA arrays. These mini-chips were produced on a Nylon substrate, spotting specific cDNA of the markers of interest.
The analysis was conducted using proprietary optimised miniaturised technology, based on the use of messenger RNA and ^33P labelling:
At the end of each culture time, the epidermises were rinsed with a PBS solution. The total RNA in the epidermises was then extracted and purified using Tri-Reagent [Sigma] according to a standardised protocol. The quantity and quality of the RNA were then evaluated using an Agilent 2001 bioanalyser.
The mRNA from each culture was then reverse transcribed using oligodT and a deoxyribonucleotide triphosphate labelled with ^33P. Multiple cDNA ‘target’ labelled sequences were produced for each culture. These targets were then hybridised, under optimised conditions, with the excess ‘probe’ cDNA fixed on the membranes. After washing, the relative quantity of labelled target was detected by means of direct counting on PhosphorImager.
The membrane analysis was conducted using ImageQuant TL software [Image Analysis, Amersham Biosciences].

[7] = system: Lysyl oxidase like 2 (LOXL2); assay: DNA array gene expression, Skinethic reconstructed epidermises: LOXL2; assay type: cell-based; conditions: 1 μM retinoic acid
hyaluronic acid = assay: Hyaluronic acid synthesis/release by keratinocytes (ELISA); assay type: cell-based, human; conditions: 0.1 μM retinoic acid, 72 hours
Protocol: as §2, §3
In the group corresponding to the hyaluronic acid assay, at the end of treatment, the culture supernatants were sampled and the hyaluronic acid assayed using a specific modified ELISA test [Biogenic].
as §4

TGF b1: TGFβ1 [R&D Systems], positive control / reference
Gene expression of MMP1, Inhibition (% vs stimulated cells) (MMP1): −66 $$ % | Gene expression of MMP1, Relative quantity standardised with YWHA2 (MMP1): 0.61 | Gene expression of MMP1, Inhibition (% vs stimulated cells) (MMP1; listed as TGFβ1): −66% | Gene expression of Elastin, Relative quantity standardised with HPRT (Elastin; 5 mg/ml TGF b1): 1.59 | increase in gene expression of elastin (Elastin; TGFβ1 positive control): 59% | Gene expression of Collagen I, Relative quantity standardised with HPRT (Collagen I; 5 mg/ml TGF b1): 1.74* | increase in gene expression of type I collagen (Collagen I; TGFβ1 positive control): 74%

[Ca+2] [Calcium, calcium]
GAG synthesis, 35-5 sulphate incorporation (cpm) ([1]; 1.5 mM calcium): 17753 ± 876 cpm | GAG synthesis, % vs control cells ([1]; 1.5 mM calcium): +59%

COc1ccc(O)c(C(C)(C)C)c1 [BHA, Butylated hydroxyanisole]
Oxidised proteins (cytoplasmic fluorescence intensity/number of cells) (oxidised proteins): 105 314* | Oxidised proteins, % vs “senescent cells” (P16) (oxidised proteins): −57% | Protection % [2]: 50% | Relative intracellular quantity of lipid peroxides, % of “oxidised cell” standard [2]: 89** %

IL-1β: interleukin-1β, positive induction checking for hBD-2
hBD-2 (OD), Average (hBD-2): 0.106 OD | hBD-2 (OD) (hBD-2; single replicates): 0.103 OD and 0.11 OD and 0.105 OD

O=c1c(O)c(-c2ccc(O)c(O)c2)oc2cc(O)cc(O)c12 [Quercetin]
Tryptase [3]: 44 ± 2 mg/mL | tryptase release, Inhibition (% vs stimulated cells) [3]: −47%

CC1=C(/C=C/C(C)=C/C=C/C(C)=C/C(=O)O)C(C)(C)CCC1 [retinoic acid]
GAG synthesis, 35-5 sulphate incorporation (cpm) ([1]; 0.1 μM retinoic acid): 13217 ± 421 cpm | % variation with respect to reference: S100 A7 (S100 A7; 6 hours): +118% | % variation with respect to reference: S100 A7 (S100 A7; 24 hours): +3240% | % variation with respect to reference: Desmosglein 1 (Desmosglein 1; 6 hours): −40% | % variation with respect to reference: Desmosglein 1 (Desmosglein 1; 24 hours): −95% | % variation with respect to reference: NICE-1 protein (NICE-1 protein; 6 hours): −3% | % variation with respect to reference: NICE-1 protein (NICE-1 protein; 24 hours): +217% | % variation with respect to reference: Heme oxygenase 1 (Heme oxygenase 1; 6 hours): −17% | % variation with respect to reference: Heme oxygenase 1 (Heme oxygenase 1; 24 hours): +108% | NHDF proliferation, % vs control cells [4]: +20% | NHDF proliferation, Neutral Red (OD 540) [4]: 0.1923 ± 0.00765 OD 540 | % variation with respect to reference: Elafin (Elafin; 6 hours): +13% | % variation with respect to reference: Elafin (Elafin; 24 hours): −22% | % variation with respect to reference: S100 A8 (S100 A8; 6 hours): +34% | % variation with respect to reference: S100 A8 (S100 A8; 24 hours): +1347% | NHEK proliferation, % vs control cells [5]: +36% | NHEK proliferation, Neutral Red (OD 540) [5]: 0.6981 ± 0.1627 OD 540 | % variation with respect to reference: SPRL6A ([6]; 6 hours): −41% | % variation with respect to reference: SPRL6A ([6]; 24 hours): +202% | % variation with respect to reference: S100 A9 (S100 A9; 6 hours): +83% | % variation with respect to reference: S100 A9 (S100 A9; 24 hours): +552% | % variation with respect to reference: Thioredoxin (Thioredoxin; 6 hours): −26% | % variation with respect to reference: Thioredoxin (Thioredoxin; 24 hours): +126% | % variation with respect to reference: Lysyl oxidase like 2 (LOXL2) ([7]; 6 hours): −16% | % variation with respect to reference: Lysyl oxidase like 2 (LOXL2) ([7]; 24 hours): −16% | Hyaluronic acid synthesis/release, % vs control cells (hyaluronic acid): +146% | Hyaluronic acid synthesis/release, HA (hyaluronic acid; culture supernatant): 11500 ± 457 ng/mL
